Laboratory results: patent US20200317660A1, “Quinazolinone Compound and Application Thereof” (LUOXIN PHARMACEUTICAL (SHANGHAI) CO., LTD., priority 2017, published 2020)
pIC50: −log10 of the molar value.

Experiments:
[1] = molecular target: T1, PI3Kα (Homo sapiens, UniProt P42336); experiment: In vitro test of enzyme activity (ADP-Glo lipokinase), PI3K alpha; assay type: biochemical; conditions: 40 μM ATP, 50 μM PIP2:3PS, 120 min
T1 construct: purchased Millipore 14-602-K

[2] = tested on: phosphorylation of PI3K downstream protein Akt in MCF7 cells; experiment: In vitro test of cells activity: ELISA of Akt phosphorylation in MCF7 cells; assay type: cell-based; conditions: Homo sapiens, MCF7, 2 h, 2 h compound, insulin 10 μg/mL stimulation, pAkt ELISA, read-out: MCF7 Cell IC50
In short: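 MCF7 cells were serum-starved overnight, exposed to 10-point three-fold compound dilutions for 2 h at 37°C, then stimulated with 10 μg/mL insulin for 30 min. Lysates were assayed for phospho-Akt by ELISA.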

[3] = In vivo DMPK study in mice after a single administration; parameters: species or system female Balb/c mice; conditions: female, Balb/c, mouse, plasma, intravenous 1 mg/kg
Procedure: Experimental objective: female Balb/c mice were used as the test animals, and the blood concentration of the compound was determined and the pharmacokinetic behavior was evaluated after a single administration.
Experimental operation: 12 healthy adult female Balb/c mice were selected, 6 for intravenous injection group and 6 for oral administration group. The compound to be tested was mixed with an appropriate amount of intravenous injection group vehicle (10% HP-betaCD: 10% solutol=1:1, pH=8), vortex-mixed and sonicated to prepare a 1.0 mg/mL clear solution, followed by filtration for subsequent use; the vehicle in the oral group was 0.5% MC/0.2% Tw80. After the test compound and the vehicle were mixed, it was vortex-mixed and sonicated to prepare a 1.0 mg/mL homogeneous suspension for subsequent use. After an intravenous administration at a dose of 1 mg/kg or an oral administration at the dose of 2 mg/kg and 10 mg/kg, whole blood of the mice was collected for a certain period of time to prepare plasma. The drug concentration was analyzed by LC-MS/MS method, and Phoenix WinNonlin software was used (Pharsight, USA) to calculate the pharmacokinetic parameters.
Cmax: the highest concentration of the drug in the body; F %: oral bioavailability; Oral DNAUC: area under the dose normalization curve; Vd: apparent volume of distribution; Cl: clearance rate; T1/2: half-life.

T1 sequence (P42336 whole entry): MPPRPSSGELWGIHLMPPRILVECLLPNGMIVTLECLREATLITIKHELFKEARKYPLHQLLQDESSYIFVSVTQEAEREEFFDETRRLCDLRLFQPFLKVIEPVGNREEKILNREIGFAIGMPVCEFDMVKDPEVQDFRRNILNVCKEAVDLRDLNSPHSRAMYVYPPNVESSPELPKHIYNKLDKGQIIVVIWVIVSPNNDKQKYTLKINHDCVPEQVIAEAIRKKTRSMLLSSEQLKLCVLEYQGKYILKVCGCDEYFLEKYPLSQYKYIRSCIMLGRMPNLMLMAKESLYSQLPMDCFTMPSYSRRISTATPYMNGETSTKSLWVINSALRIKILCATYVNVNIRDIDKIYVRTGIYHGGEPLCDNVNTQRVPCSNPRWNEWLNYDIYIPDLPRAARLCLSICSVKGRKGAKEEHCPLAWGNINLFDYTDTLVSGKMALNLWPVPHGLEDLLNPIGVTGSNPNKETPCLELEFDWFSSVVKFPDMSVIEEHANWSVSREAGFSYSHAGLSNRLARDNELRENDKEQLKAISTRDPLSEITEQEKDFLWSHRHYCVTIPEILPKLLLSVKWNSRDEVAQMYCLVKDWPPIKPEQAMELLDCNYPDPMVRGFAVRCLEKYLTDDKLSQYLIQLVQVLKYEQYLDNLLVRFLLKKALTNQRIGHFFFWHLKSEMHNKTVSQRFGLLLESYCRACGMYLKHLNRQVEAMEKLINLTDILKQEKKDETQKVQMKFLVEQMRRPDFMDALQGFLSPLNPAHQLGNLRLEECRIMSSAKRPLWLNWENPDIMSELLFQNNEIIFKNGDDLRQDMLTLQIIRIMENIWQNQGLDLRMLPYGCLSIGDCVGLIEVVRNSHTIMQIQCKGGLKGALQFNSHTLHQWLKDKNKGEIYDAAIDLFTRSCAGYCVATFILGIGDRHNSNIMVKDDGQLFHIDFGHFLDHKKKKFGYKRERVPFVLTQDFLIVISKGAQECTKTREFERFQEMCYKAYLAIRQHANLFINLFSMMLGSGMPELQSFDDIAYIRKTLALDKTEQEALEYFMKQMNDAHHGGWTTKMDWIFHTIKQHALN
T1 sequence (P27986 whole entry partner): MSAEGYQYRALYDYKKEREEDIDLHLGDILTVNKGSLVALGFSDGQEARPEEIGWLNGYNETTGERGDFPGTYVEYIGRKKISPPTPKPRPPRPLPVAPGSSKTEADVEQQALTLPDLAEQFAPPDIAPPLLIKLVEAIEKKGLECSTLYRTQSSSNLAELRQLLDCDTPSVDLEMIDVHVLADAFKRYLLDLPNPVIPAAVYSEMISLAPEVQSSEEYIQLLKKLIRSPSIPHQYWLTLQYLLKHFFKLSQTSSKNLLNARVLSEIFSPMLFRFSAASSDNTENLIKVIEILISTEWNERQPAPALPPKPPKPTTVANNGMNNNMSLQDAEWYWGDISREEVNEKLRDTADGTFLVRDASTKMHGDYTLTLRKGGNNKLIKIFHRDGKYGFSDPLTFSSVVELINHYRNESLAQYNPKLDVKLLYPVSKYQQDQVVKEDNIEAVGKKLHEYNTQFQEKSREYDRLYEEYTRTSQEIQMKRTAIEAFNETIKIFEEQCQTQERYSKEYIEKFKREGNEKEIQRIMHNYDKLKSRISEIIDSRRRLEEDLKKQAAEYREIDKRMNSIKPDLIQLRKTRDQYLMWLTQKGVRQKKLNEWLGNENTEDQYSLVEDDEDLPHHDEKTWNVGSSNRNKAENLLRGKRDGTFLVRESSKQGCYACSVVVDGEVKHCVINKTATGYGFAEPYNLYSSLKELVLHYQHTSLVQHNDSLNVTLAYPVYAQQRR

pIC50 [1]: 8.96
pIC50 [2]: 8.03
clearance ([3]; read-out: Cl (clearance rate)): 4.16 mL/min/kg
half-life ([3]; read-out: Intravenous injection T1/2 (converted)): 53.4 min
Vd ([3]; read-out: Vd (apparent volume of distribution)): 0.257 L/kg
Structure (SMILES): CNC(=O)CCCn1cnc2ccc(-c3cnc(OC)c(NS(=O)(=O)c4ccc(F)cc4Cl)c3)cc2c1=O [WX198]
